Measurements: patent publication US20100216823A1 (Pfizer Inc., priority 2007, published 2010)

Key:
Type in all cases: biochemical
PDE1C = target: T1, PDE1C (Homo sapiens, UniProt Q14123); assay: PDE1C [3H]-cAMP scintillation proximity assay (SPA) enzyme inhibition; conditions: full length PDE1C in cell lysate; 75 nM cAMP; Ki from IC50 by Cheng-Prussof equation
T1 construct: cell lysate containing full length PDE7A, PDE7B and PDE1C enzyme; made in house; host or cells: cell lysate
Description: (§1) The ability of the compounds of formula (I) to inhibit PDE7 and PDE1 may be measured using the following assay protocol.
(§2) PDE7A, PDE7B and PDE1C enzymes catalyse the hydrolysis of 3′,5′-cyclic adenosine monophosphate (cAMP) to the 5′ adenosine monophosphate, 5′AMP. In a multiwell plate, PDE enzyme, [^3H]-cAMP and the test compounds, are incubated at room temperature. The incubation is terminated by addition of commercially available yttrium silicate scintillation proximity assay (SPA) beads containing zinc sulphate. The yttrium silicate beads preferentially bind linear nucleotides, thus the product of the enzyme reaction, [^3H]-5′AMP binds to the bead to produce a light signal, which is detected by a scintillation counter. The amount of signal produced directly correlates with the amount of product formed, and thus the activity of the enzyme. The maximum signal is obtained where enzyme and substrate are incubated alone. The background signal is measured from wells either containing no enzyme, or from wells containing a supra-maximal concentration of a known PDE 7A/7B/1C inhibitor. Each purified batch of enzyme is quality controlled and its Km, Vmax and specific activity determined from kinetic studies before use in compound inhibition studies. The inhibition of the enzyme, by a test compound, is calculated relative to the maximum and background responses.
(§3) The compound of Example 75 of WO 02/074754, 5′-carboxypropoxy-8′-chloro-spiro[cyclohexane-1-4′-(3′,4′-dihydro)quinazolin]-2′(1′H)-one (referred to as compound A hereafter) was used as a standard for PDE7A and PDE7B. The compound of Example 32 of WO 02/074754, 4-(8′-chloro-2′-oxo-2′,3′-dihydro-1′H-spiro[cyclohexane-1,4′-quinazolin]-6′-yl)benzoic acid (referred to as compound B hereafter) was used as a standard for PDE1C.
(§4) The optimisation of this assay has been carried out using cell lysate containing full length PDE7A, PDE7B and PDE1C enzyme. The concentration of the enzyme in this cell lysate sample is unknown, so the specific activity of the cell lysate is used as a measure to ensure that the same activity per well is used despite any batch-to-batch variation of concentration/activity.
(§5) PDE7A/7B/1C stock enzyme was prepared and kept at −20° C. in appropriately sized aliquots to reduce the number of freeze/thaw cycles. […] PDE7A is diluted to 1/8000, PDE7B to 1/10000 and PDE1C to 1/200000.
The final assay [cAMP]=75 nM therefore the required solution [cAMP]=0.15 μM (1/2 dilution in assay plate)
(§6) 1 μl test compound was transferred into a suitable multi-well assay plate immediately prior to reagent assay addition, 14 μl enzyme solution was then added to the assay plate, followed by 15 μl substrate solution (ie: final assay volume 30 μl, with a final screening compound concentration of 1 μM for PDE7A and PDE7B and 10 μM for PDE1C). The plate was then sealed using a plate sealer and incubated at room temperature for 45 min on the plate shaker.
(§7) 30 μl Yttrium Silicate PDE4 SPA beads were then added, ensuring constant stirring of the beads to give even distribution in the assay plate. The plate was then sealed using a plate sealer and incubated at room temperature for 30 mins on the plate shaker. The beads were then allowed to settle for 30 mins, before spinning the plates for 1 min at 200 g.
(§8) The plates were then read on a suitable radioactive counter, for example NXT-TopCount™ (available from Perkin Elmer) using the relevant protocol (30 second read time per well).
(§9) The data was fitted to a sigmoid curve using a least squares algorithm.
(§10) The IC50 value was converted to a value using the Cheng-Prussof equation: […]

PDE7A = target: T2, PDE7A (Homo sapiens, UniProt Q13946); assay: PDE7A [3H]-cAMP scintillation proximity assay (SPA) enzyme inhibition; conditions: for Ki: full length PDE7A in cell lysate, ~25 nM cAMP, Ki from IC50 by Cheng-Prussof equation; for 1C/7A selectivity: ratio PDE1C Ki / PDE7A Ki
T2 construct: cell lysate containing full length PDE7A, PDE7B and PDE1C enzyme; made in house; host or cells: cell lysate
Description: as §1, §2, §3, §4, §5
(§11) The final assay [cAMP] of ˜25 nM is required, so ˜50 nM [^3H]-cAMP was prepared. 9 ml of substrate solution was prepared by mixing 10.8 μl of [^3H]-cAMP (available from Amersham) with 8975 μl of assay buffer.
as §6, §7, §8, §9, §10

PDE7B = target: T3, PDE7B (Homo sapiens, UniProt Q9NP56); assay: PDE7B [3H]-cAMP scintillation proximity assay (SPA) enzyme inhibition; conditions: for Ki: full length PDE7B in cell lysate, ~25 nM cAMP, Ki from IC50 by Cheng-Prussof equation; for 1C/7B selectivity: ratio PDE1C Ki / PDE7B Ki
T3 construct: cell lysate containing full length PDE7A, PDE7B and PDE1C enzyme; made in house; host or cells: cell lysate
Description: as §1, §2, §3, §4, §5, §11, §6, §7, §8, §9, §10

T3 sequence (Q9NP56 whole entry): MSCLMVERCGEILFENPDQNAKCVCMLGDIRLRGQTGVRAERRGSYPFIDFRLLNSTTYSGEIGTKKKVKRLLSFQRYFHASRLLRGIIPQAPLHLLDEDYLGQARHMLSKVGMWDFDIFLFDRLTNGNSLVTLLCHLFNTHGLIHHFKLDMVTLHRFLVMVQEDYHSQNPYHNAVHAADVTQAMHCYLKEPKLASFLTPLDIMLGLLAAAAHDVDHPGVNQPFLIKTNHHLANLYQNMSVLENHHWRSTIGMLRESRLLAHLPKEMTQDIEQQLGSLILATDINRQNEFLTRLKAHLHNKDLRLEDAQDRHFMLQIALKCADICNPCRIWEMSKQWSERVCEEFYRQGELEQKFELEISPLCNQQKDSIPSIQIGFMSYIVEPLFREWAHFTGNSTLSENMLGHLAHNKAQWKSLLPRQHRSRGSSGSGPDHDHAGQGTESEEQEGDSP
T1 sequence (Q14123 whole entry): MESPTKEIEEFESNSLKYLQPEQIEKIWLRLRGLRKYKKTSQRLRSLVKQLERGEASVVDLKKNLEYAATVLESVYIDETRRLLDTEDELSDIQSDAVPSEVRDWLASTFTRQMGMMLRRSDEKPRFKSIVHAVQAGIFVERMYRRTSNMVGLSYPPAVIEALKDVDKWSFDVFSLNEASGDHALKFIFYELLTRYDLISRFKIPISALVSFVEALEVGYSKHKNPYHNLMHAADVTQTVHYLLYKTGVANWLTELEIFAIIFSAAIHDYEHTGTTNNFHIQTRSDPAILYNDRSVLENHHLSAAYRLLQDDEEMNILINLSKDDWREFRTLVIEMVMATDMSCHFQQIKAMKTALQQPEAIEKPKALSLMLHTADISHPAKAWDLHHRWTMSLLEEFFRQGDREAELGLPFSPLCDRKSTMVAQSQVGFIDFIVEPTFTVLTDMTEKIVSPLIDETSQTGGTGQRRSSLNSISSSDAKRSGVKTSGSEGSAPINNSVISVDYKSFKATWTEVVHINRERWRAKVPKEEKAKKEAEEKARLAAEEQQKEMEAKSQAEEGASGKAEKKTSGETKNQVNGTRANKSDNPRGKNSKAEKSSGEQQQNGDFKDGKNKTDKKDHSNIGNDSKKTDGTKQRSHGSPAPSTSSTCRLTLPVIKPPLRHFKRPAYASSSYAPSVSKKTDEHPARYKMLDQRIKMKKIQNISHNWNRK
T2 sequence (Q13946 whole entry): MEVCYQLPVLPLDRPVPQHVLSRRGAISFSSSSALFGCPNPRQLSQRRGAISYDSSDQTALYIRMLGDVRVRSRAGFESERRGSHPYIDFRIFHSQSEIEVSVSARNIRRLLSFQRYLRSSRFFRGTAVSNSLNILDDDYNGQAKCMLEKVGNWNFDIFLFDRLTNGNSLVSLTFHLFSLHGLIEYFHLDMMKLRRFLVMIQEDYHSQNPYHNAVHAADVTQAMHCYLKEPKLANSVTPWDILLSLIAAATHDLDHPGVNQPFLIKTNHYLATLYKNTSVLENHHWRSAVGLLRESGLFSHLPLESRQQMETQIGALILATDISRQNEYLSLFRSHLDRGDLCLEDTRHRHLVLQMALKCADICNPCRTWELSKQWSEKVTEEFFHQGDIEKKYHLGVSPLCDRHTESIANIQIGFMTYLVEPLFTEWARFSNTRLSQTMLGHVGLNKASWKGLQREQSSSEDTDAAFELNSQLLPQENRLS

| Ki (PDE1C) [nM] | Ki (PDE7A) [nM] | 1C/7A selectivity (PDE7A) | Ki (PDE7B) [nM] | 1C/7B selectivity (PDE7B) | SMILES |
| --- | --- | --- | --- | --- | --- |
| 1810 | 4.8 | 380 | 9.4 | 192 | O=C1Nc2c(Cl)ccc(Oc3c(Cl)cccc3C(=O)O)c2C2(CCCCC2)N1 [Example 8, 3-chloro-2-{(8′-chloro-2′-oxo-2′,3′-dihydro-1′H-spiro[cyclohexane-1,4′-quinazolin]-5′-yl)oxy}benzoic acid] |
| > 3750 | 32 | >116 | 41 | >92 | O=C1Nc2c(F)ccc(Oc3c(Cl)cccc3C(=O)O)c2C2(CCCCC2)N1 [Example 9, 3-chloro-2-{(8′-fluoro-2′-oxo-2′,3′-dihydro-1′H-spiro[cyclohexane-1,4′-quinazolin]-5′-yl)oxy}benzoic acid] |
| 73 | 0.1 | 743 | 0.4 | 186 | O=C1Nc2c(Cl)ccc(Oc3c(F)cccc3-c3nn[nH]n3)c2C2(CCCCC2)N1 [Example 10, 8′-chloro-5′-[2-fluoro-6-(2H-tetrazol-5-yl)phenoxy]-1′H-spiro[cyclohexane-1,4′-quinazolin]-2′(3′H)-one] |
| 70 | < 0.2 | >307 | 1 | 70 | O=C1Nc2c(Cl)ccc(Oc3ccc(F)cc3-c3nn[nH]n3)c2C2(CCCCC2)N1 [Example 11, 8′-chloro-5′-[4-fluoro-2-(1H-tetrazol-5-yl)phenoxy]-1′H-spiro[cyclohexane-1,4′-quinazolin]-2′(3′H)-one] |
| 89 | 0.3 | 301 | 0.7 | 123 | O=C1Nc2c(F)ccc(Oc3c(F)cccc3-c3nn[nH]n3)c2C2(CCCCC2)N1 [Example 12] |
| 862 | 1.7 | 523 | 7.2 | 119 | O=C1Nc2c(Cl)ccc(Oc3ccc(F)cc3-c3nnn[nH]3)c2C2(CCCC2)N1 [Example 13, 8′-chloro-5′-[4-fluoro-2-(1H-tetrazol-5-yl)phenoxy]-1′H-spiro[cyclopentane-1,4′-quinazolin]-2′(3′H)-one] |
| 723 | 2.4 | 301 | 4.4 | 165 | O=C1Nc2c(Cl)ccc(Oc3c(F)cccc3-c3nn[nH]n3)c2C2(CCCC2)N1 [Example 14, 8′-chloro-5′-[6-fluoro-2-(1H-tetrazol-5-yl)phenoxy]-1′H-spiro[cyclopentane-1,4′-quinazolin]-2′(3′H)-one] |
| 1080 | 5 | 217 | 6.6 | 164 | O=C1Nc2c(Cl)ccc(Oc3c(Cl)cccc3-c3nn[nH]n3)c2C2(CCCC2)N1 [Example 15, 8′-chloro-5′-[6-chloro-2-(1H-tetrazol-5-yl)phenoxy]-1′H-spiro[cyclopentane-1,4′-quinazolin]-2′(3′H)-one] |
| 778 | 2.3 | 345 | 9.8 | 79 | O=C1Nc2c(Cl)ccc(Oc3ccccc3-c3nn[nH]n3)c2C2(CCCC2)N1 [Example 16, 8′-chloro-5′-[2-(1H-tetrazol-5-yl)phenoxy]-1′H-spiro[cyclopentane-1,4′-quinazolin]-2′(3′H)-one] |
|  | < 0.05 | >282 |  |  | O=C(O)Cc1cccc(F)c1Oc1ccc(Cl)c2c1C1(CCCCC1)NC(=O)N2 [Example 22, {2-[(8′-chloro-2′-oxo-2′,3′-dihydro-1′H-spiro[cyclohexane-1,4′-quinazolin]-5′-yl)oxy]-3-fluorophenyl}acetic acid] |

More lines, now with the values behind:

| SMILES | Ki (PDE1C) [nM] | Ki (PDE7A) [nM] | 1C/7A selectivity (PDE7A) | Ki (PDE7B) [nM] | 1C/7B selectivity (PDE7B) |
| --- | --- | --- | --- | --- | --- |
| O=C1Nc2c(Cl)cc(-c3ccc(C(=O)O)cc3)cc2C2(CCCCC2)N1 [Compound B, 4-(8′-chloro-2′-oxo-2′,3′-dihydro-1′H-spiro[cyclohexane-1,4′-quinazolin]-6′-yl)benzoic acid, reference compound] | 1.4 | 1.5 | 0.97 | 39 | 0.04 |
| O=C1Nc2c(Cl)ccc(OCc3ccc(C(=O)O)o3)c2C2(CCCCC2)N1 [Compound C, 5-{[(8′-chloro-2′-oxo-2′,3′-dihydro-1′H-spiro[cyclohexane-1,4′-quinazolin]-5′-yl)oxy]methyl}-2-furoic acid, reference compound] | 305 | 6.7 | 45 | 33 | 9.2 |
| O=C1Nc2c(Cl)ccc(-c3ccc(F)c(C(=O)O)c3)c2C2(CCCCC2)N1 [Example 1, 5-[(8′-chloro-2′-oxo-2′,3′-dihydro-1′H-spiro[cyclohexane-1,4′-quinazolin]-5′-yl)]-2-fluorobenzoic acid] | > 5600 | 3.2 | >1750 | 32 | >175 |
| O=C1Nc2c(Cl)ccc(-c3cccc(C(=O)O)c3)c2C2(CCCCC2)N1 [Example 2] | > 5630 | 3.1 | >1810 | 12 | >477 |
| O=C1Nc2c(Cl)ccc(-c3ccc(C(=O)O)c(F)c3)c2C2(CCCCC2)N1 [Example 3, 5-[(8′-chloro-2′-oxo-2′,3′-dihydro-1′H-spiro[cyclohexane-1,4′-quinazolin]-4′-yl)]-2-fluorobenzoic acid] | 2430 | 11 | 218 | 101 | 24 |
| O=C1Nc2c(Cl)ccc(-c3ccc(F)c(-c4nn[nH]n4)c3)c2C2(CCCCC2)N1 [Example 4] | 1560 | 7.5 | 207 | 45 | 35 |
| O=C(O)COc1cccc(-c2ccc(Cl)c3c2C2(CCCCC2)NC(=O)N3)c1 [Example 5, [3-(8′-chloro-2′-oxo-2′,3′-dihydro-1′H-spiro[cyclohexane-1,4′-quinazolin]-5′-yl)phenoxy]acetic acid] | > 5730 | 4.5 | >1260 | 51 | >113 |
| O=C1Nc2c(Cl)ccc(Oc3c(F)cccc3C(=O)O)c2C2(CCCCC2)N1 [Example 6, 2-{(8′-chloro-2′-oxo-2′,3′-dihydro-1′H-spiro[cyclohexane-1,4′-quinazolin]-5′-yl)oxy}-3-fluorobenzoic acid] | 584 | 1.7 | 336 | 3.4 | 172 |
| O=C1Nc2c(Cl)ccc(Oc3c(F)cccc3C(=O)O)c2C2(CCCC2)N1 [Example 7, 2-{(8′-chloro-2′-oxo-2′,3′-dihydro-1′H-spiro[cyclopentane-1,4′-quinazolin]-5′-oxy}-3-fluorobenzoic acid] | 2260 | 11 | 201 | 21 | 107 |
